Key:
IFN-R on Daudi cells = assay: Inhibition of Type 1-IFN binding to the IFN-R on Daudi cells: 125I-IFN-α2 binding in presence of Mab 64G12 with or without peptide; details: Mab 64G12 2 μg, 125I-labeled human IFN-α2 0.13 nM, 2 hours at 4° C.
Experimental: Inhibition of Type 1-IFN Binding to the IFN-R on Daudi Cells.
Cultures of exponentially growing Daudi cells (2 million cells/0.2 ml RPMI 1640 medium with 10% fetal calf serum) were treated with: Mab 64G12 (2 μg), alone or together with: (i) a soluble affinity purified recombinant polypeptide corresponding to amino acids 1 to 427 of the extracellular domain region sequence of the IFNAR1 chain as reported by Uze et al., 1990, Cell, 60, 224-234 (prepared as described in Benoit et al., 1993, J. Immunol., 150, 707-716 and Published International Application WO 92/18626 and purified first on a NI-NTA agarose column (Qiagen) and subsequently eluted with 300 mM imidazole. The eluted partially purified soluble IFNAR1 was then applied to a 5.0 ml 64G12 Mab sepharose column and eluted with 0.1 M glycine, pH 2.8. The eluted IFNAR1 was pure as determined by SDS-PAGE under denaturing conditions) or (ii) the peptide of SEQ ID no. 2 (the 11 mer). This was followed by the addition of ^125I-labeled human IFN-α2 (iodination as described by Mogensen et al., 1981, Int. J. Cancer, 28, 575-582; 90000 cpm, 0.13 nM) and incubation for 2 hours at 4° C. The cells were then washed 3 times with culture medium containing 1% fetal calf serum and the cell pellet counted in a gamma counter.

Mab 64G12 = assay: ELISA binding of peptides to Mab 64G12; parameters: species or system mouse; details: biotin-SGSG-peptide on streptavidin plates, peptide 20 μM, antibody 1 μg/ml
Experimental: Binding of Peptides to Mab 64G12
The 11 mer (SEQ ID no. 2) and a number of modified versions of that polypeptide derived by deletion or substitution were tested for ability to bind Mab 64G12 by ELISA. […]. The peptides were biotinylated at the N-terminus with a spacer sequence SGSG between the peptide and the biotin, i.e. biotin-SGSG-peptide.
ELISA screening for ability to bind Mab 64G12 was carried out using Nunc Maxisorb plates coated with Streptavidin 5 μg/ml, 100 μl/well overnight at 37° C. The plates were then blocked with 200 μl/well of PBS containing 0.1% Tween 20, 1% sodium caseinate (CAST) for 1 hour at 20° C. Peptides were dissolved by adding 50 μl of DMSO and 0.6 ml of 40% acetonitrile to each tube. For peptide coating, 100 μl of PBS, 0.1% Tween 20 (PT) were added to each well, followed by 2 μl of each peptide solution (final peptide concentration 20 μM). After 30 mins, the monoclonal antibody was added at 1 μg/ml in PT for 1 hour at 20° C. The plates were washed and 100 μl/well of a 1/2000 dilution of horseradish peroxidase labeled goat anti-mouse IgG (H+L) in CAST plus 1% sheep serum (CASS) was added for 1 hour at 20° C. After washing, 100 μl of ABTS substrate was distributed to all wells. Absorbance was measured after 10 and 45 mins incubation on a plate reader using dual wavelength ([…]) to correct for background.

[1] = test system: anti-IFN-R antibody (34F10); assay: Effect of peptide on binding of non-neutralizing anti-IFN-R antibody 34F10 to the IFN-R; details: epitope distant from the ligand binding site

Substance | IFN binding to the IFN-R in the presence of Mab 64G12 (IFN-R on Daudi cells) | binding to Mab 64G12 by ELISA (Mab 64G12) | ability of antibody 34F10 to bind to the IFN-R [1]
NFSSLKLNVYE (Modified peptide from Hu IFNAR1 receptor) [Peptide 12] | restored IFN-binding to a high degree | specifically bind | does not affect
FSSLKLNVY (Modified peptide from Hu IFNAR1 receptor) [9 mer] | – | specifically bind | –
KLNVYE (Modified peptide from Hu IFNAR1 receptor) [Peptide 7] | – | only background binding | –
